Source: patent US20060128643A1, “Compositions containing a combination of a creatine compound and a second agent” (The General Hospital Corporation, priority 1998, published 2006)

Experiments:
[1] = tested on: malonate induced striatal lesions; assay: Malonate model of Huntington's disease: striatal lesion volume (Example 1); type: in vivo, rats
Experimental: Oral administration of creatine and its analogue cyclocreatine were examined to determine their ability to attenuate malonate lesions. Creatine was administered orally to rats in their feed at doses of 0.25-3.0% of the diet. Cyclocreatine was administered at 0.2-1.0%. Controls received unsupplemented otherwise identical diets. The compounds were administered for two weeks prior to the administration of malonate and then for a further week prior to sacrifice. Malonate was dissolved in distilled deionized water and the pH wad adjusted to 7.4 with 0.1 m HCl. Intrastriatal injections of 1.5 ul of malonate containing 3 μmol were made into the striatum at the level of the bregma 2.4 mm lateral to the midline and 4.5 mm ventral to the dura. Animals were sacrificed at 7 days by decapitation, and the brains were quickly removed and placed in ice cold 0.9% saline solution. Brains were sectioned at 2 mm intervals. Slices were then placed posterior side down in 2% 2,3,5-triphenyltetrazolium chloride. Slices were stained in the dark at room temperature for 30 minutes and then removed and placed in 4% paraformaldehyde, pH 7.3. Lesions, noted by pale staining, were evaluated on the posterior surface of each section using a Bioquant 4 system by an experienced histologist blinded to experimental conditions. These measurements have been validated by comparing them to measurements obtained on adjacent Nissl stain sections.

[2] = tested on: MPTP induced dopaminergic toxicity; assay: MPTP model for Parkinson's disease: striatal dopamine, DOPAC, HVA; type: in vivo, male Swiss Webster mice
Experimental: The effect of two representative creatine compounds, creatine and cyclocreatine, were evaluated using this model. Creatine and cyclocreatine were administered in the initial pilot experiment as 1% formulation in the feed of animals, and was administered for three weeks before MPTP treatment. MPTP was administered intraperitoneally at a dose of 15 mg/kg every 2 hours for five injections. The animals then remained on either creatine or cyclocreatine supplemented diets for 1 week before sacrifice. The mice examined were male Swiss Webster mice weighing 30-35 grams obtained from Taconic Farms. Control groups received either normal saline or MPTP hydrochloride alone. MPTP was administered in 0.1 ml of water. The MPTP was obtained from Research Biochemicals. Eight to twelve animals were examined in each group. Following sacrifice the two striata were rapidly dissected and placed in chilled 0.1 M perchloric acid. Tissue was subsequently sonicated, and aliquots were taken for protein quantification using a fluorometer assay. Dopamine, 3,4-dihydroxyphenylacetic acid (DOPAC), and homovanillic acid (HVA) were quantified by HPLC with 16 electrode electrochemical detection. Concentrations of dopamine and metabolites were expressed as nmol/mg protein. The statistical significance of differences was determined by one-way ANOVA followed by Fisher PLSDpost-hoc test to compare group means.
A dose response study was conducted where the creatine dose was 0.25%-3.0% of the diet and cyclocreatine 0.25-1.0% of the diet.

[3] = up to 1% of diet for 2 weeks or for over 4 weeks; cited from earlier work
[4] = feeding animals, e.g. 1% dietary; cited from earlier work
[5] = rats receiving dietary 1% cyclocreatine; cited from earlier work
[6] = cited from earlier work
[7] = tested on: malonate lesions (striatal); assay: Malonate striatal lesions, creatine and nicotinamide (Example 4); type: in vivo, male Sprague-Dawley rats; conditions: creatine 1% in the diet, nicotinamide 0.5% in the drinking water; malonate 3 μmol intrastriatal
Experimental: Studies of the neuroprotective effects of creatine and nicotinamide were carried out in 250 to 300 g male Sprague-Dawley rats. Creatine was administered orally to rats in their feed at a dose of 1% in the diet. Nicotinamide was administered orally with apple juice at a dose of 0.5% in the drinking water. Rats were treated for one week prior to intracerebral injectior˜s. Animals then remained on the control or supplemented diets for one week prior to being sacrificed. Eleven to 12 animals were examined in each experimental group. NMDA was administered at a doge of 240 nmol in 1 μl. AMPA was administered at a dose of 30 nmol in 1 μl and kainic acid was administered at dose of 5 nmol in 1 μl. Malonate was dissolved in distilled deionized water and the pH was adjusted to 7.4 with HCl. Intrastriatal injections of 3 μmol of malonate in 1.5 μl were made with a 10 μl Hamiiton syringe fitted with a 26 gauge blunt tip needle, into the left striatum at the level of the bregma, 2.4 mm lateral to the midline and 4.5 mm ventral to the dura as described previously [Matthews, R. T et al. J. Neurosci., 18 (1998) 156-163]. […] Lesions noted by pale staining were evaluated on the posterior surface of each section using a Bioquant 4 system, which calculates the volume of the lesions in each section, by an experienced histologist blinded to experimental conditions. […]

[8] = tested on: malonate striatal lesions; conditions: cited from earlier work; for protection against lesions in the malonate animal model: in vivo
[9] = tested on: MPTP neurotoxicity (dopamine depletion); conditions: animal model of Parkinson's disease; cited from earlier work
creatine kinase = creatine kinase (Oryctolagus cuniculus, UniProt P00563); conditions: cited from earlier work
[10] = intravenous injection, up to 8 grams/day, patients with cardiac diseases; cited from earlier work
MPTP toxicity = conditions: mice; cited from earlier work
[11] = cited from earlier work; remark: listed apart in the source
[12] = dose response study, 0.5% of the diet

Sequence of creatine kinase (P00563 whole entry): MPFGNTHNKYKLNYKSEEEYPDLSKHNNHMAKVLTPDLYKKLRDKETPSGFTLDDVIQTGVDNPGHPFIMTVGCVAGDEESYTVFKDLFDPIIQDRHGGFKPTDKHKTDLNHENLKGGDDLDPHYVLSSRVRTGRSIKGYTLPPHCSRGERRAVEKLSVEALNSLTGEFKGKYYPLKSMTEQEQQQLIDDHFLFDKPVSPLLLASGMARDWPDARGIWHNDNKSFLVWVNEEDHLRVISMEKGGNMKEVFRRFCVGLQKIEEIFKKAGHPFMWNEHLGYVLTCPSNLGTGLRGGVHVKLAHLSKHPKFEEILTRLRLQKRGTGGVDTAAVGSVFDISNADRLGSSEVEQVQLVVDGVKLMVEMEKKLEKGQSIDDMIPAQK

Molecule: NC1=NCCN1CC(=O)O [cyclocreatine, 1-carboxymethyl-2-iminoimidazolidine]
- neuroprotection against malonate induced striatal lesions ([1]; 1% in the diet): significant
- neuroprotection against malonate induced striatal lesions, dose response ([1]; increasing doses in the diet (creatine 0.25-3%; cyclocreatine 0.2-1.0%)): dose dependent neuroprotective effects
- protection against striatal malonate lesions ([1]; oral supplementation in feed, 2 weeks before and 1 week after intrastriatal malonate 3 μmol): protected against striatal malonate lesions
- effect against MPTP induced depletions of homovanillic acid ([2]; 1% in feed, pilot experiment): effective
- neuroprotection against MPTP induced dopamine depletions ([2]; 1% in feed, pilot experiment): significant neuroprotection
- neuroprotective effect compared with creatine ([2]; 1% in feed, pilot experiment): greater than that seen with creatine alone
- protection against DOPAC depletions induced by MPTP ([2]; 1% in feed, pilot experiment, MPTP 15 mg/kg i.p. x5): significantly protected
- effects on the dopamine metabolites HVA and DOPAC ([2]; dose response study (creatine 0.25%-3.0%; cyclocreatine 0.25-1.0% of the diet)): neuroprotection effects
- neuroprotection against MPTP induced dopamine depletions [2, 12]: significant protection
- protection against HVA depletion [2, 12]: not seen
- neuroprotection against MPTP induced dopamine depletions ([2]; dose response study, 1.0% of the diet): significant protection
- gross adverse effects [3]: without gross adverse effects
- accumulation in organs [4]: accumulation of cyclocreatine in different organs in mM concentrations
- tissue uptake [5]: taken up by muscle, heart and brain
- mortality ([6]; diet containing 1% cyclocreatine, in the presence of antibiotics): without significant mortality
- growth versus control chicks ([6]; in vivo): grew more slowly

Molecule: NC(=O)c1cccnc1 [nicotinamide]
- neuroprotective effect against malonate lesions (striatal lesion volume) [7]: did not reach significance
- ATP depletion produced by malonate in vivo [8]: attenuated ATP depletion
- protection against lesions in the malonate animal model [8]: dose dependent protection
- protection against dopamine depletion [9]: effective in inhibiting moderate dopamine depletion

Molecule: CC(C)(C)[N+]([O-])=Cc1ccccc1S(=O)(=O)O [N-tert-a-(2-sulfophenyl) nitrone, reference compound]
- protection against dopamine depletion [9]: effective in inhibiting moderate dopamine depletion

Molecule: isoepoxycreatine
- inactivation of creatine kinase (creatine kinase): completely and irreversibly inactivate

Molecule: N=C(N)N(CC(=O)O)CC1CO1 (centres unmarked) [epoxycreatine]
- inactivation of creatine kinase (creatine kinase): completely and irreversibly inactivate

Molecule: N-phosphoryl creatine [creatine phosphate]
- adverse side effects [10]: no adverse side effects

Molecule: COC1=C(OC)C(=O)C(C/C=C(\C)CC/C=C(\C)CC/C=C(\C)CC/C=C(\C)CC/C=C(\C)CC/C=C(\C)CC/C=C(\C)CC/C=C(\C)CC/C=C(\C)CCC=C(C)C)=C(C)C1=O [CoQ10, 2,3 dimethoxy-5 methyl-6-decaprenyl benzoquinone]
- ATP depletion produced by malonate in vivo [8]: attenuated ATP depletion
- protection against lesions in the malonate animal model [8]: dose dependent protection
- protection against MPTP toxicity (MPTP toxicity): significantly protect
- solubility in chloroform and carbon tetrachloride [11]: very soluble
- solubility in water [11]: insoluble in water
